Assay results from PubChem BioAssay AID2305 (GlaxoSmithKline (GSK), 2010).
pIC50: −log10 of the molar value.

The compounds below were run on P. falciparum 3D7 growth, pLDH absorbance (assay: blood-stage malaria parasite growth potency – strain 3D7, dose response (AID 2305)).

Row | Structure (SMILES) | pIC50
1 | CC[C@H]1CN2CCc3cc(OC)c(OC)cc3[C@@H]2C[C@@H]1C[C@H]1NCCc2c1cc(OC)c(O)c2I | 6.66
2 | COc1ccc(N2CCc3c(-c4cccc5cnccc45)cc(C)nc32)c(C)c1 | 6.18
3 | CN1CCC(NCc2ccc(-c3ccc(Cl)cc3)cc2)CC1 | 6.12
4 | CCc1c(CCNCCc2cccc(CCNCCc3ccc(OC)c(OC)c3CC)c2)ccc(OC)c1OC | 6.44
5 | COc1ccc(Nc2ncc3c(-c4cccc(NC(=O)CC(C)C)c4)c[nH]c3n2)cc1OC | 6.08
6 | COc1ccc(C2CC(c3cccs3)=NN2C(=O)COc2cccc3c2CCCC3O)cc1OC (stereo not drawn) | 5.94
7 | O=C(Nc1ccc(Oc2ccccc2)cc1)NC1CCC(CN2CCC(c3c[nH]c4ccccc34)CC2)CC1 (stereo not drawn) | 6.24
8 | COc1ccc(C(=O)N2CCC3(CC2)C(=O)N(CC(=O)NCC2CCCCC2)CN3c2ccccc2)c(OC)c1 | 6.92
9 | O=C(Nc1cccc(Cl)c1Cl)N[C@H]1CCN(CCCCCNC(=O)[C@@H]2C[C@H]2c2ccc(Cl)c(Cl)c2)C1 | 5.89
10 | C=CCn1c(Sc2ccc(C#N)c([N+](=O)[O-])c2)nnc1-c1cccc(Cl)c1 | 6.52
11 | CCCCc1cc(=O)oc2cc(C)cc(OCc3ccccc3F)c12 | 5.99
12 | CCCn1cc2c(ccc3nc(N)nc(N)c32)n1 | 7.10
13 | C=CCN1CCC(N(Cc2cccc(Oc3ccccc3)c2)C(=O)C(c2ccccc2)c2ccccc2)CC1 | 5.94
14 | Cc1ccc(Cc2c(C)nc3nc(N)nc(N)c3c2C)cc1 | 6.62
15 | CCCS(=O)(=O)N1CCC(CO)(Cc2ccccc2C(F)(F)F)CC1 | 6.05
16 | CCCNCc1ccc(-c2ccc(CN(CCOC)C(=O)c3cnc(C)cn3)cc2)nc1 | 5.90
17 | O=C(Nc1ccc(Oc2ccccc2)cc1)N(Cc1ccc(-c2cccc(CN3CCNCC3)c2)cc1)C1CCN(Cc2ccccc2)CC1 | 6.06
18 | CCCCCCCc1c(C)[nH]c2c(OC)cccc2c1=O | 6.04
19 | CN1CCC(NCc2ccc(-c3cccc(S(=O)(=O)NCC4CCCO4)c3)cc2)CC1 (stereo not drawn) | 6.03
20 | CCOC(=O)c1c(C)n(-c2ccc(Cl)cc2)c2ccc(OC(=O)C=Cc3ccccc3)cc12 | 6.15
21 | CCN(CC)Cc1cccc(-c2cc3c(-c4ccc(C(=O)O)c(C(C)C)c4)ccnc3[nH]2)c1OC | 6.49
22 | CC(C)CNC(=O)c1cncc(-c2ccc(CNC3Cc4ccccc4C3)cc2)c1 | 6.15
23 | Cc1ccc(Cn2ncc(N3CCNCC3)c(Cl)c2=O)cc1NC(=O)Nc1ccc(-c2ccccc2)cc1 | 5.95
24 | CN(c1ccc2c(c1)nc(Nc1ccc(Cl)cc1)n2C)c1ccnc(Nc2ccc(CS(C)(=O)=O)cc2)n1 | 6.12

Row | Structure (SMILES) | pIC50
25 | CCCCSc1c(CNCCCCCCNCc2ccc3ccccc3c2SCCCC)ccc2ccccc12 | 6.00
26 | COc1ccc(N2CCN(CCCNC(=O)c3ccc(NC(=O)c4cc(Cl)cc(Cl)c4)cc3)CC2)c(OC)c1 | 6.57
27 | CCN1CCN(c2cc(C)c3cc(NC(=O)C=Cc4cccc(OC)c4OC)ccc3n2)CC1 | 6.15
28 | CCOC(=O)C(Oc1ccc2ccccc2c1)C(=O)OCC | 6.12
29 | COc1cccc(-c2[nH]c3ccccc3c2CN2CCC(c3c(C)cccc3C)CC2)c1 | 5.99
30 | CC(C)(C)CCN1CCC(CNC(=O)c2cc(-c3cccc(Cl)c3)cs2)C1 (stereo not drawn) | 6.09
31 | O=C(NC1CCC(CN2CCC(c3c[nH]c4ccccc34)CC2)CC1)C1(O)c2ccccc2-c2ccccc21 (stereo not drawn) | 5.92
32 | CC(C)(C)c1ccc(NC(=O)c2cccc(CN3CCCN(Cc4cccc(O)c4)CC3)c2)cc1 | 6.26
33 | CCn1c(SCC(=O)Nc2cc(C(F)(F)F)ccc2Cl)nc2ccccc2c1=O | 6.40
34 | CO/C(=C\C=C\c1cc2cc(Cl)c(Cl)cc2[nH]1)C(=O)NC1CCN(CCNc2ccccc2)CC1 | 6.59
35 | Cc1cccc2[nH]c(-c3cccc(-c4cccc(NC(=O)Nc5ccc(Cl)cc5)c4)c3)nc12 | 6.62
36 | Fc1ccc2nc(-c3cccc(-c4ccc(CN5CCN(CCN6CCOCC6)CC5)cc4)c3)[nH]c2c1 | 6.51
37 | COc1ccc(-c2ccc(NC(=O)c3cccc(C#N)c3)cc2)cc1CN1CCCN(C)CC1 | 6.54
38 | O=C(NCc1cccc(CN2CCOCC2)c1)c1cc(Br)cc(N2CCN(c3ccncc3)CC2)c1 | 6.07
39 | CN(C)CCC(O)(c1ccc(Br)cc1)c1cccnc1 (stereo not drawn) | 6.08
40 | O=C(/C=C/c1ccc(Cl)c(Cl)c1)N1CCN(C(=O)Nc2ccc(F)c(Cl)c2)CC1 | 6.14
41 | COc1cc(Nc2nccc(N3CCC(NC(=O)c4cccc(NC(C)=O)c4)C3)n2)cc(OC)c1OC (stereo not drawn) | 6.08
42 | CCC(C)NC(=O)Nc1ccc(-c2cccc(-c3nc4ccccc4[nH]3)c2)cc1 (stereo not drawn) | 6.09
43 | COc1ccc(NC(=O)Nc2ccc(C)c(-c3ccc(C(=O)NCCN4CCCC4)cc3)c2)cc1 | 6.05
44 | Fc1cc(Cl)ccc1Nc1ccnc2cc(-c3ccc(CN4CCNCC4)o3)ccc12 | 6.55
45 | O=C(Nc1cccc(-c2csc(-c3nc4ccccc4[nH]3)c2)c1)c1cc(=O)c2ccccc2[nH]1 | 6.64
46 | CCCNCc1ccc(-c2ccc(CN(Cc3ccc4c(c3)OCO4)C(=O)[C@H]3CCCO3)cc2)nc1 | 6.09
47 | N#Cc1ccc(NC(=NCc2cccnc2)Nc2ccc(-c3ccccc3)cc2)c(O)c1 | 6.09
48 | CCC[C@@H]([C@@H](Cc1ccc(C)s1)C(=O)N[C@@H](CNC(C)=O)C(=O)Nc1nccs1)N(O)C=O | 6.74
